As usually defined, the pest or weed control is the degree to which the test organism was suppressed or injured, in per cent.

Common to all, as to assay type: in vivo
In one series the test system is crabgrass. Kind of series: Herbicidal activity test against upland field weeds (foliar treatment test). As to conditions: Digitaria sanguinalis, 50 g ai/ha, scale 0-100. The procedure, abridged:
(§1)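 Greenhouse-grown plants (30±5 °C, 14/10 h light/dark) foliar hand-sprayed with compound in 50% acetone, 0.1% Tween-20 at 50 or 75 g a.i./ha. Control visually scored 0 (none) to 100 (complete) versus untreated after 14 days, or 21 days if needed.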

In another series the test system is fall panicum. The series is described as above. The following applies: Panicum dichotomiflorum, 50 g ai/ha, scale 0-100. The procedure, abridged:
as §1

For another series, the system named is bindweed. The series is described as above. As to conditions: 50 g ai/ha, scale 0-100. The procedure, abridged:
as §1

The next series deals with black nightshade. Described as above. Also on record: key to Foliar treatment herbicidal activity, black nightshade: 0 (no control); 100 (complete control). As to conditions: 50 g ai/ha, scale 0-100. The procedure, abridged: as §1
In another series the test system is soybean. Kind of series: Phytotoxicity test for field crops (soil treatment test). Also on record: key: 0 (no harm); 9 (complete withered). The method, then:
(§2) Experimental Example 4: Phytotoxicity Test for Field Crops (Soil Treatment Test)
(§3) Soil treatment was performed for sown crops and weeds in a square plastic pot having a surface area of 50 cm^2 filled with sterilized horticultural soil (pH 6.1, organic material 1.0%, clay 21%, silt 17%, sand 52%). As a fertilizer per pot, 0.5 g of horticultural mixed fertilizer (N:P:K=17:21:17) was treated by mixing with soil. Five kinds of crops such as rice, wheat, corn, soybean, and cotton were sown in each pot. One day after sowing, test compound solutions were made by diluting with the diluent (33% acetone, 0.1% Tween-20) so that the final treatment amount of the test compounds was 19˜300 g a.i./ha. The prepared test compound solutions were treated using a spray booth (SB6-016) at a treatment amount of 100 ml per 1 m^2 of treatment area. The treated crops were managed in greenhouse conditions (average temperature 30±5° C., light/dark=14/10 hours). External symptoms and phytotoxicity were visually investigated 10 and 20 days after treatment. In the evaluation of the phytotoxicity for the crop, the grade of 0 (no harm) to 9 (complete withered) was used. The results of Table 10 were obtained by evaluating phytotoxicity value to the untreated control.

The next series deals with wheat. The description is as above. Further details: key: 0 (no harm); 9 (complete withered). The method, then: as §2, §3
The subject of the next series is rice. The series is described as above. Further details: key: 0 (no harm); 9 (complete withered). Here is the method:
as §2, §3

The next series relates to cotton. The description is as above. Also on record: key: 0 (no harm); 9 (complete withered). Here is the method: as §2, §3
For a further series, the system named is corn. Described as above. Also on record: key: 0 (no harm); 9 (complete withered). Here is the method: as §2, §3
The test system of the next series is barnyard grass. Kind of series: Herbicidal activity test against upland field weeds (foliar treatment test). As to conditions: Echinochloa crus-galli, 50 g ai/ha, scale 0-100. The procedure, abridged:
as §1

A further series deals with indian jointvetch. The series is described as above. As to conditions: 50 g ai/ha, scale 0-100. An outline of the steps:
as §1

[1] abbreviates: 50 g ai/ha, Soybean (20 days after treatment).
[2] abbreviates: 100 g ai/ha, Soybean (20 days after treatment).
Where [3] appears, read: 50 g ai/ha, Wheat (10 days after treatment).
The mark [4] stands for this setting: 50 g ai/ha, Wheat (20 days after treatment).
The mark [5] stands for this setting: 100 g ai/ha, Wheat (10 days after treatment).
[6] abbreviates: 100 g ai/ha, Wheat (20 days after treatment).
Where [7] appears, read: 50 g ai/ha, Rice (10 days after treatment).
[8] abbreviates: 50 g ai/ha, Rice (20 days after treatment).
The mark [9] stands for this setting: 100 g ai/ha, Rice (10 days after treatment).
[10] abbreviates: 100 g ai/ha, Rice (20 days after treatment).
The mark [11] stands for this setting: 50 g ai/ha, Cotton (10 days after treatment).
The mark [12] stands for this setting: 50 g ai/ha, Cotton (20 days after treatment).
Where [13] appears, read: 100 g ai/ha, Cotton (10 days after treatment).
Setting [14] is: 100 g ai/ha, Cotton (20 days after treatment).
[15] abbreviates: 50 g ai/ha, Corn (10 days after treatment).
The mark [16] stands for this setting: 50 g ai/ha, Corn (20 days after treatment).
Where [17] appears, read: 100 g ai/ha, Corn (10 days after treatment).
Setting [18] is: 100 g ai/ha, Corn (20 days after treatment).

On to `Cn1nnc(CSCc2nc(C(F)(F)F)ccc2C(=O)N(c2nnnn2C)S(C)(=O)=O)n1` [Compound No. 2-110, N-(1-methyl-1H-tetrazol-5-yl)-2-((((2-methyl-2H-tetrazol-5-yl)methyl)thio)methyl)-N-(methylsulfonyl)-6-(trifluoromethyl)nicotinamide], for which the pest or weed control at 50 g/ha stood at 70% in the series on crabgrass; 70% in the series on fall panicum; 98% with bindweed; 20% in the series on barnyard grass; 95% in the series with indian jointvetch. For the same compound, in the series with black nightshade, the “Foliar treatment herbicidal activity, black nightshade” value (“Foliar treatment herbicidal activity” below) is 100. Also, the “Soil treatment phytotoxicity, Soybean” value in the series with soybean (setting [1]) and in the series on soybean (setting [2]) was 0 each time. Further, the “Soil treatment phytotoxicity, Wheat” value in the series on wheat (setting [3]), in the series on wheat (setting [4]), with wheat (setting [5]) and with wheat (setting [6]) was 0 in each case. The “Soil treatment phytotoxicity, Rice” value in the series with rice (setting [7]), in the series with rice (setting [8]), with rice (setting [9]) and in the series on rice (setting [10]) was 0 in each case. Further, the “Soil treatment phytotoxicity, Cotton” value in the series on cotton (setting [11]), with cotton (setting [12]), in the series on cotton (setting [13]) and with cotton (setting [14]) was 0 in each case. In addition, the “Soil treatment phytotoxicity, Corn” value in the series on corn (setting [15]), with corn (setting [16]), with corn (setting [17]) and in the series on corn (setting [18]) was 0 each time.
For `CON(Cc1nnn(C)n1)Cc1nc(C(F)(F)F)ccc1C(=O)Nc1nnnn1C` [Compound No. 2-97, 2-((methoxy((2-methyl-2H-tetrazol-5-yl)methyl)amino)methyl)-N-(1-methyl-1H-tetrazol-5-yl)-6-(trifluoromethyl)nicotinamide], the pest or weed control at 50 g/ha in the series on crabgrass came to 95%; with fall panicum it was 95%; with bindweed, 80%; in the series on barnyard grass, 95%; in the series on indian jointvetch it was 95%. In the series with black nightshade, the “Foliar treatment herbicidal activity” value was found to be 100. For the same compound, the “Soil treatment phytotoxicity, Soybean” value with soybean (50 g ai/ha, Soybean (10 days after treatment)) was 0; with soybean (setting [1]), 0; in the series with soybean (100 g ai/ha, Soybean (10 days after treatment)), 0; in the series with soybean (setting [2]), 0. The “Soil treatment phytotoxicity, Wheat” value with wheat (setting [3]), in the series on wheat (setting [4]) and in the series on wheat (setting [5]) was 0 in each case. Further, the “Soil treatment phytotoxicity, Rice” value in the series on rice (setting [7]) is 7; with rice (setting [8]), 9; in the series on rice (setting [9]) it was 9; in the series with rice (setting [10]), 9. Moreover, the “Soil treatment phytotoxicity, Cotton” value in the series on cotton (setting [11]) was determined as 1; with cotton (setting [12]), 7; with cotton (setting [13]), 4; with cotton (setting [14]) it was 8. For the same compound, the “Soil treatment phytotoxicity, Corn” value in the series with corn (setting [15]) is on record as 0; in the series with corn (setting [16]) it was 0; in the series with corn (setting [17]), 1; with corn (setting [18]), 0.
Consider `Cc1nc(COCc2nc(C(F)(F)F)ccc2C(=O)Nc2nnnn2C)nn1C` [Compound No. 2-116, 2-(((1,5-dimethyl-1H-1,2,4-triazol-3-yl)methoxy)methyl)-N-(1-methyl-1H-tetrazol-5-yl)-6-(trifluoromethyl)nicotinamide], for which the pest or weed control at 50 g/ha in the series on crabgrass stood at 80%; in the series with fall panicum it was 80%; with bindweed it was 90%; in the series with barnyard grass it was 98%; with indian jointvetch it was 40%. For the same compound, the “Foliar treatment herbicidal activity” value with black nightshade was 100. Moreover, the “Soil treatment phytotoxicity, Wheat” value in the series with wheat (setting [3]) was determined as 0; in the series on wheat (setting [4]) it was 2; in the series with wheat (setting [5]) it was 0; with wheat (setting [6]) it was 0. Besides, the “Soil treatment phytotoxicity, Rice” value amounted to 0 in the series on rice (setting [7]), 3 with rice (setting [8]), 0 in the series on rice (setting [9]) and 2 in the series on rice (setting [10]). For the same compound, the “Soil treatment phytotoxicity, Cotton” value is listed as 1 in the series with cotton (setting [11]), 3 with cotton (setting [12]), 1 with cotton (setting [13]) and 2 in the series with cotton (setting [14]). In addition, the “Soil treatment phytotoxicity, Corn” value in the series on corn (setting [15]) was 1; in the series on corn (setting [16]), 4; in the series with corn (setting [17]), 1; in the series on corn (setting [18]), 3.
For `Cc1nc(COCc2nc(C(F)(F)F)ccc2C(=S)Nc2nnnn2C)nn1C` [Compound No. 2-117, 2-(((1,5-dimethyl-1H-1,2,4-triazol-3-yl)methoxy)methyl)-N-(1-methyl-1H-tetrazol-5-yl)-6-(trifluoromethyl)pyridin-3-carbothioamide], the pest or weed control at 50 g/ha in the series on crabgrass came out at 95%; with fall panicum, 40%; in the series on bindweed, 70%; in the series with barnyard grass, 98%; with indian jointvetch, 40%. In addition, in the series with black nightshade, the “Foliar treatment herbicidal activity” value was 100. Besides, the “Soil treatment phytotoxicity, Wheat” value in the series with wheat (setting [3]), with wheat (setting [4]), with wheat (setting [5]) and in the series with wheat (setting [6]) was 0 each time. Also, the “Soil treatment phytotoxicity, Rice” value in the series on rice (setting [7]) came out at 0; with rice (setting [8]), 2; in the series on rice (setting [9]) it was 0; in the series on rice (setting [10]), 3. The “Soil treatment phytotoxicity, Cotton” value in the series with cotton (setting [11]) amounted to 0; with cotton (setting [12]), 9; with cotton (setting [13]) it was 0; in the series with cotton (setting [14]), 9. Besides, the “Soil treatment phytotoxicity, Corn” value in the series with corn (setting [15]) worked out at 1; in the series on corn (setting [16]), 3; with corn (setting [17]) it was 2; in the series on corn (setting [18]), 2.

The record behind these values is patent US12495798B2, “Nicotinamide compound and herbicidal composition comprising compound” (KOREA RESEARCH INSTITUTE OF CHEMICAL TECHNOLOGY, priority 2019, dated 2025).
